The values that follow come from US10487349B2, “Use of a fluidic device” (GRADIENTECH AB, priority 2013, dated 2019).

The conditions of series [1]: in agarose matrix; cited from earlier work.
In series [2] the test system is E. coli K12 MG1655. Kind of series: Microfluidic 3D culture matrix concentration-gradient antibiotic susceptibility test (CELLDIRECTOR Ruby). The class given is cell-based, Escherichia coli. The note with it: E. coli K12 MG1655 in agarose 3D culture matrix; gradient ampicillin 20-0 μg/ml or spectinomycin 50-0 μg/ml. The protocol:
Bacterium strain E. coli K12 MG1655 was cultured on a Luria broth (LB) plate. The E. coli cells were diluted by phosphate buffered saline (PBS) to OD600=0.1 as measured by a MULTISKAN® FC Microplate Photometer (Thermo Scientific). Same volumes of PBS with OD600=0.1 cells and low-melting temperature agarose were mixed together. A pipette with white tips was used to suck up 8 μl of the mixture and inject the mixture into the culture chamber of a microfluidic device CELLDIRECTOR® Ruby (Gradientech AB), see upper panel in FIG. 20. The fluid channel inputs of the microfluidic device were connected to fluid reservoirs comprising Muelle-Hinton medium and where one of the reservoirs also contained 20 μg/ml ampicillin. The speed of a pusher used to draw the medium into the fluid channels was set to 5 μl/min for 30 minutes and then to 2 μl/min for the rest of the time. […]
The pictures were cut to match a selected central portion of the culture chamber, see black box in FIGS. 17A and 18A. Image processing software was used to extract detected light intensity data from the pictures. A spatial growth situation distribution diagram was used to summarize the grey-scale values, i.e. detected light intensity values, of all the lines that are perpendicular to the direction of the gradient as the Y-axis with the concentration gradient as the X-axis. […]

On to `CC1(C)S[C@@H]2[C@H](NC(=O)[C@H](N)c3ccccc3)C(=O)N2[C@H]1C(=O)O` [ampicillin], for which, in series [1], the “diffusion constant D” value was 0.016 cm^2/h. Besides, in series [2], the “resistance of the microorganism to the test substance, from width of the border zone” value is “no corresponding ampicillin resistance was detected”. `CN[C@@H]1[C@H](O)[C@H](NC)[C@H]2O[C@@]3(O)C(=O)C[C@@H](C)O[C@H]3O[C@@H]2[C@H]1O` [spectinomycin]: in series [2], the “resistance of the microorganism to the test substance, from width of the border zone” value is “presence of spectinomycin resistance”.
